Measured values taken from ChEMBL document CHEMBL1201862, “PubChem BioAssay data set” (2004).
Active and inactive are the calls of the source.

How the values were obtained:
Beta-galactosidase = Beta-galactosidase (Escherichia coli, UniProt Q8VNN2); assay: PubChem AID 485352; format: functional
[1] = biological target: T1, Type-1 angiotensin II receptor (Homo sapiens, UniProt P30556); assay: antagonism of angiotensin II type 1 receptor – cell-based, uHTS hits, selectivity assay for APJ receptor antagonist project, dose response (AID 463214); format: functional;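 note: antagonist potency against angiotensin II stimulated AT1 response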
T1 sequence (P30556 whole entry): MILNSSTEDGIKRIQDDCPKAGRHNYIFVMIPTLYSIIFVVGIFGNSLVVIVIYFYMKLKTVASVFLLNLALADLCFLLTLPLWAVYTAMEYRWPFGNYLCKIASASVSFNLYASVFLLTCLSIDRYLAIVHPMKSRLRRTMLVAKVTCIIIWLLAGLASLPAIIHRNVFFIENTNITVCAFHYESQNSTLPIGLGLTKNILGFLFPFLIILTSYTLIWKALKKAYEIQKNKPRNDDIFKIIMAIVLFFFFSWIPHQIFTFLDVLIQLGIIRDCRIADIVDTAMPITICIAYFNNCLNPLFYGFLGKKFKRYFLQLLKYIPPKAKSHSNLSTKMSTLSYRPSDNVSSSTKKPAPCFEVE

[2] = biological target: T2, Replicative DNA helicase DnaB (Mycobacterium tuberculosis, UniProt P9WMR3); assay: DnaB intein splicing inhibitors, dose response, biochemical, cell-free fluorescence (AID 449749); format: functional
T2 sequence (P9WMR3 whole entry): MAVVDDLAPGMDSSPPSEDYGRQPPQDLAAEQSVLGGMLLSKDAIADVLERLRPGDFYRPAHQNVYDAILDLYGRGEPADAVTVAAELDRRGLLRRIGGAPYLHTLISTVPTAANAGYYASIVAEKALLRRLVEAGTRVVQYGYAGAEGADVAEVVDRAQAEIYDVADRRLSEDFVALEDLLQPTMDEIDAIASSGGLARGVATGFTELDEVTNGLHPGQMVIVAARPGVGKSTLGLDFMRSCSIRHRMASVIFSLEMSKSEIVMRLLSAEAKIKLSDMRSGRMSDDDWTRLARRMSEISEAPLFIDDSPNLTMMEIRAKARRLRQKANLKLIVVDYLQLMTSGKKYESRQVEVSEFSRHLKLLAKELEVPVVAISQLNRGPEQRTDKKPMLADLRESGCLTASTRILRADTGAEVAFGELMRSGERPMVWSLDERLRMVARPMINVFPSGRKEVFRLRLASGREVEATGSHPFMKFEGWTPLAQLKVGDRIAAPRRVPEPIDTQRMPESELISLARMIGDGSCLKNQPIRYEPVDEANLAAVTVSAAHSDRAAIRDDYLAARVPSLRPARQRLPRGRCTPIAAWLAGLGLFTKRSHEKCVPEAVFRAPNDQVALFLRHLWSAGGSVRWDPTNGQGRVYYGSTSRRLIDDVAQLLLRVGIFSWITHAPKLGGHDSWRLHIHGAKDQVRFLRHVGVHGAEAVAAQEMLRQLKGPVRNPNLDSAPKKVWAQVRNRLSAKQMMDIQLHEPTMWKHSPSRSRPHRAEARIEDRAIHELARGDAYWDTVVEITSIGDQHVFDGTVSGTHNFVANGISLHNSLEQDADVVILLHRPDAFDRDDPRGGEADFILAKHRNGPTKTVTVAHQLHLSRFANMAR

[3] = biological target: T3, Sentrin-specific protease 8 (Homo sapiens, UniProt Q96LD8); format: functional
T3 sequence (Q96LD8 whole entry): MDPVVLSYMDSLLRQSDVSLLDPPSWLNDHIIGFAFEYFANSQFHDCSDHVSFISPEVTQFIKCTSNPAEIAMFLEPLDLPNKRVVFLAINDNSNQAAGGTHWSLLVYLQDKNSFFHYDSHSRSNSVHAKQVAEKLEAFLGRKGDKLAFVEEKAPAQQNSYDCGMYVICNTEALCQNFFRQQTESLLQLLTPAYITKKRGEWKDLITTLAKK

[4] = biological target: T3, Sentrin-specific protease 8; format: functional; remark: listed apart in the source
Protein RecA = biological target: T4, Protein RecA (Mycobacterium tuberculosis, UniProt P9WHJ3); assay: Fluorescence Cell-Free Homogeneous Dose Retest to Identify Inhibitors of RecA-Intein Splicing Activity. [Related pubchem assays (depositor defined):AID2097, AID2223, AID489010, AID492950]; format: functional
T4 sequence (P9WHJ3 whole entry): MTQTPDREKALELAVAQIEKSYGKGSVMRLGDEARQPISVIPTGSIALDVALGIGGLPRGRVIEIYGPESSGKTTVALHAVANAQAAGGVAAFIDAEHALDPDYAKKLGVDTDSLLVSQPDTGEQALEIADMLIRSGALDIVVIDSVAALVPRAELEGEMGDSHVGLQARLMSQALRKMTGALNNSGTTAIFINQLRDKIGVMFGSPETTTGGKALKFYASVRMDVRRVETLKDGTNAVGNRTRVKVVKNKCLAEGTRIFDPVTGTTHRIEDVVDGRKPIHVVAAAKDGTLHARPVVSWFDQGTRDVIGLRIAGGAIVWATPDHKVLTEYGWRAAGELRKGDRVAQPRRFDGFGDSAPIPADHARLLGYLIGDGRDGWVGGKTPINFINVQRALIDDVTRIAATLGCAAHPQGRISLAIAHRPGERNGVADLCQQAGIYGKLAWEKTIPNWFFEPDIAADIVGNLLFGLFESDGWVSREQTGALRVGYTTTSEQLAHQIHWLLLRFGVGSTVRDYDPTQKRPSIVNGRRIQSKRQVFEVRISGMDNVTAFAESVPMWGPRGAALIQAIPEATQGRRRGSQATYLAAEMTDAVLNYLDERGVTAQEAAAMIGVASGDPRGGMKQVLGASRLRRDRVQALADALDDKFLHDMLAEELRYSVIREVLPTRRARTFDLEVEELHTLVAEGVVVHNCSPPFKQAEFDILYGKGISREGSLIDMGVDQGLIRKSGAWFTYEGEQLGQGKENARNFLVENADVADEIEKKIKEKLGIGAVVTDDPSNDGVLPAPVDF

Cytochrome P450 2C9 = Cytochrome P450 2C9 (Homo sapiens, UniProt P11712)
Cytochrome P450 2D6 = Cytochrome P450 2D6 (Homo sapiens, UniProt P10635);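 note: CYP2D6 member of a cytochrome P450 panel assay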
[5] = inhibition of ADAM10 peptide cleavage – biochemical, FRET peptide substrate, recombinant human ADAM10, selectivity assay for ADAM17 exosite inhibitor project, dose response (AID 743259);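 note: ADAM10 enzyme cleaving a FRET peptide substrate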
[6] = biological target: Disintegrin and metalloproteinase domain-containing protein 17 (Homo sapiens, UniProt P78536); assay: exosite inhibitors of ADAM17, dose response, biochemical (AID 743260)
[7] = biological target: T5, Apoptotic protease-activating factor 1 (Homo sapiens, UniProt O14727); format: functional
T5 sequence (O14727 whole entry): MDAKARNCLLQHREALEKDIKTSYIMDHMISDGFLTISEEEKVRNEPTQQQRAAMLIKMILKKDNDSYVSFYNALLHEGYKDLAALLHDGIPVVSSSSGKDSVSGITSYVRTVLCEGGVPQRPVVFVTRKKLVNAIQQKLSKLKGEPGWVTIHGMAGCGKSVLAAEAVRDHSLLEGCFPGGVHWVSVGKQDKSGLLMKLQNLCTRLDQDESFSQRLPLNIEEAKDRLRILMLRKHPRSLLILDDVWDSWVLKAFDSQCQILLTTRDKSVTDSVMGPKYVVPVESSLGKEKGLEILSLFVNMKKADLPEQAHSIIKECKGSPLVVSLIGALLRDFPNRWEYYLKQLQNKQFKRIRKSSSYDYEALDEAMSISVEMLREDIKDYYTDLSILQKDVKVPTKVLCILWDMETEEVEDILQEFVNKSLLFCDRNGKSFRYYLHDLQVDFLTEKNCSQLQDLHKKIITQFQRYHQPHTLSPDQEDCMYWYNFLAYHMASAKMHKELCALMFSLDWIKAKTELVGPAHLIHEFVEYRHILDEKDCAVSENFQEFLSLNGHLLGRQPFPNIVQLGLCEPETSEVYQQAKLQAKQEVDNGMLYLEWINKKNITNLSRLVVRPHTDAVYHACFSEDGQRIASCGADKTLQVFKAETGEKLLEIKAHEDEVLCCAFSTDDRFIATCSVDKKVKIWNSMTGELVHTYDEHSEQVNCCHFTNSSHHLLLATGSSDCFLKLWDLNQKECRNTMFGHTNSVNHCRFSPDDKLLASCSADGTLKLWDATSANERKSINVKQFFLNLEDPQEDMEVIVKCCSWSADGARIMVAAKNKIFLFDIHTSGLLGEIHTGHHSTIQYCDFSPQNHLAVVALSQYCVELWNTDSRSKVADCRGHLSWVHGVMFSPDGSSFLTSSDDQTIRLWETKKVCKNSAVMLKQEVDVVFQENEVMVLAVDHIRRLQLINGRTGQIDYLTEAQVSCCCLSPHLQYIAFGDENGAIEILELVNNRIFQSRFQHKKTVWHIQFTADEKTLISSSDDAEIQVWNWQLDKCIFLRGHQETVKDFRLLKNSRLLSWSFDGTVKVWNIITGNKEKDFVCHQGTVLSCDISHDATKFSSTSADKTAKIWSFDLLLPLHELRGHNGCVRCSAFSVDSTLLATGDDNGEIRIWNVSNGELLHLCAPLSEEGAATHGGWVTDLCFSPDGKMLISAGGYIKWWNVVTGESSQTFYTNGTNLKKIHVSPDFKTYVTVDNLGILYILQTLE

[8] = NIH3T3 cell viability loss – ATP luminescence, mouse fibroblasts, counter-screen, dose response (AID 2010); format: functional, cell-based;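 note: cells exposed to compound for about 90 hours before reading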
[9] = Trypanosoma cruzi growth suppression in host cells – NIH3T3 host cells, beta-gal luminescence, confirmation (AID 2044); format: functional, cell-based;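 note: intracellular parasites grown in NIH/3T3 mouse fibroblasts as host cells; luminescent beta-galactosidase reporter signal from transgenic T. cruzi replicating inside host cells; inhibitors lower the luminescence signal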
[10] = microbe, parasite or virus in culture; format: functional; conditions: Mycobacterium tuberculosis
[11] = general cell-killing toxicity readout – plate reader, dry powder samples, cytotoxicity control for PAX8 inhibitor project, dose response (AID 743021); format: functional, cell-based
Paired box protein Pax-8 = Paired box protein Pax-8 (Homo sapiens, UniProt Q06710); assay: PAX8 transcriptional activity inhibition in RMG-I – RMG-I cells, luciferase, cherry-pick, dose response (AID 687027); format: functional, cell-based;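 note: luciferase reporter driven by Pax8 target thyroperoxidase promoter measured by SteadyGlo luminescence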
[12] = HIV-1 AD8 envelope cell-cell fusion blockers – cherry-pick, dose response (AID 652062); format: functional, cell-based;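 note: luciferase signal from cell-cell fusion driven by HIV-1 clade B AD8 Env; potency is for inhibitors of fusion seen as a drop in luminescence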
[13] = blockers of HIV-1 envelope-mediated cell-cell fusion – cherry-pick, dose response (AID 652057); format: functional, cell-based
[14] = blockers of HIV-1 ZM109 envelope-driven cell-cell fusion – HeLa effector, CEM target cells, luciferase, cherry-pick, dose response (AID 652058); format: functional, cell-based;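 note: luciferase signal from HIV-1 Env mediated cell-cell fusion of effector and target cells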
[15] = IGROV1 cell killing – plate reader, dry powder samples, PAX8 inhibitor project, dose response (AID 743043); format: functional, cell-based; conditions: IGROV-1
[16] = OVCAR8 cell viability loss – plate reader, dry powder samples, PAX8 project, dose response (AID 743197); format: functional, cell-based; conditions: OVCAR-8

Disintegrin and metalloproteinase domain-containing protein 17, sequence (P78536 whole entry, the tested form may be a part): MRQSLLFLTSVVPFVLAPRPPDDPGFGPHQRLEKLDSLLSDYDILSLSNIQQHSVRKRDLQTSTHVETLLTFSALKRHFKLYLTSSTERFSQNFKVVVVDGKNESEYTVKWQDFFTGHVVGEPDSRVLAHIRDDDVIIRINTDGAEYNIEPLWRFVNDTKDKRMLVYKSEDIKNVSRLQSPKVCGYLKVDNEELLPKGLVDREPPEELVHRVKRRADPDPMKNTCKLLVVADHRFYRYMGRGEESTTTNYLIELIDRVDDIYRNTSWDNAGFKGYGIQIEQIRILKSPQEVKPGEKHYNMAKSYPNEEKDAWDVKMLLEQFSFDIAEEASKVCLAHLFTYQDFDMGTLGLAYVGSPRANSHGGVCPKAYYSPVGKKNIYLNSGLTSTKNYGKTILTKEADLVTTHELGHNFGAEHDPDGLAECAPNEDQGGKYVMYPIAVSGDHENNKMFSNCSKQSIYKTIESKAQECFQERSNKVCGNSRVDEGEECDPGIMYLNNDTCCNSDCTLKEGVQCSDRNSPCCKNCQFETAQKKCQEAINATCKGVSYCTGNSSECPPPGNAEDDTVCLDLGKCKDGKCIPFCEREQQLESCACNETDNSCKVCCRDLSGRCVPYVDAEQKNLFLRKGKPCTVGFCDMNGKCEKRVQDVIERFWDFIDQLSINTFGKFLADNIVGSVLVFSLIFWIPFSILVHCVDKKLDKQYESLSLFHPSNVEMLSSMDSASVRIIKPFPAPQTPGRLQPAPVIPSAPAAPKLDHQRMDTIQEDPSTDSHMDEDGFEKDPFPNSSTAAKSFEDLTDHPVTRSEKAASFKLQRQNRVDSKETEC
Beta-galactosidase, sequence (Q8VNN2 whole entry): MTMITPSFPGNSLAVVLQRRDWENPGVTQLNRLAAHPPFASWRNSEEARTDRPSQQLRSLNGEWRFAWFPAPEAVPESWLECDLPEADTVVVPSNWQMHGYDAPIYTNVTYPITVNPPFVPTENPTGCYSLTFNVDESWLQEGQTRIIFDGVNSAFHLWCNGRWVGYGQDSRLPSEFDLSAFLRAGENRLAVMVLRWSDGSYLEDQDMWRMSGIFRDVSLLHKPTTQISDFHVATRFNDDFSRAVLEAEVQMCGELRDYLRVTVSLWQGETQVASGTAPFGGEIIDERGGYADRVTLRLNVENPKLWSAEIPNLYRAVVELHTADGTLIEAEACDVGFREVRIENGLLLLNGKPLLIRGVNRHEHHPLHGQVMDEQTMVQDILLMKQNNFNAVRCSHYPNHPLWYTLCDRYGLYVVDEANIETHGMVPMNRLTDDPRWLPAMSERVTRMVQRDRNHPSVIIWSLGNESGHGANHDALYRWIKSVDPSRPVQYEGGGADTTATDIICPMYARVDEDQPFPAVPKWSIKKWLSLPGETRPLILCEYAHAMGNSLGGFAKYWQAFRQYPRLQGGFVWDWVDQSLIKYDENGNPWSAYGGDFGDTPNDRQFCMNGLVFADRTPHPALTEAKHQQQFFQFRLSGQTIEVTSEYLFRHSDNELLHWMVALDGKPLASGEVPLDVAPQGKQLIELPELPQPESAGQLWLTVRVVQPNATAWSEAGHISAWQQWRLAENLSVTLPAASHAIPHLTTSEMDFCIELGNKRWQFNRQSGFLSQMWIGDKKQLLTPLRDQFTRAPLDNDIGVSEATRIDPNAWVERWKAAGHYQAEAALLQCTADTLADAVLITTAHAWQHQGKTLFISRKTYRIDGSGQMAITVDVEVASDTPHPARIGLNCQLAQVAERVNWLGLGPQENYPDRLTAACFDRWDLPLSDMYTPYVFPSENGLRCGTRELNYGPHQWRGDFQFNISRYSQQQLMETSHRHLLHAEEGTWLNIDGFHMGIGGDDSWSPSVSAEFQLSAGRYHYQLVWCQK
Paired box protein Pax-8, sequence (Q06710 whole entry, the tested form may be a part): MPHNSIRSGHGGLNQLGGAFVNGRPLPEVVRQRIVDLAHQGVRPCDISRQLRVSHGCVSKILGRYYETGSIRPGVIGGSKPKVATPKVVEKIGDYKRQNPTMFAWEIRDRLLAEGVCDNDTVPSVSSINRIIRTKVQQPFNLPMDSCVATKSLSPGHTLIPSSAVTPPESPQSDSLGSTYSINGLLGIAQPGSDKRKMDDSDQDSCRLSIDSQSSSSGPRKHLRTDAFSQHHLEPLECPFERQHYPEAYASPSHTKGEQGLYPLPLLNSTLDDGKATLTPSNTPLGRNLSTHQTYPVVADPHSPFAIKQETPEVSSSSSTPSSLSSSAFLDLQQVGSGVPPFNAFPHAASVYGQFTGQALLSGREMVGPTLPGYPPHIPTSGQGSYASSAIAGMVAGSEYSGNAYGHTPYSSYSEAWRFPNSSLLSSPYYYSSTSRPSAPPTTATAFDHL
Cytochrome P450 2C9, sequence (P11712 whole entry): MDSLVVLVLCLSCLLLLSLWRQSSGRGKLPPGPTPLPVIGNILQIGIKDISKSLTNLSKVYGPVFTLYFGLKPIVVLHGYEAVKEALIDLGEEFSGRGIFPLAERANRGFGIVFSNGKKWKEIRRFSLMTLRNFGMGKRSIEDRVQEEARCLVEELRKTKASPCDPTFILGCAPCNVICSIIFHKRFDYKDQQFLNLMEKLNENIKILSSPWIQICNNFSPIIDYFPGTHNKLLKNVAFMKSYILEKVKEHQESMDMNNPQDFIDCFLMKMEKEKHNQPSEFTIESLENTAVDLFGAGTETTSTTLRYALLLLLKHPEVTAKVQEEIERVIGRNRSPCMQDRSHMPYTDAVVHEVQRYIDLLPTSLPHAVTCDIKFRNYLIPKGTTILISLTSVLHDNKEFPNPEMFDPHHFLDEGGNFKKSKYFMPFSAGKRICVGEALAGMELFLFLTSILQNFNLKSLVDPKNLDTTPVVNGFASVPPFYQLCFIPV
Cytochrome P450 2D6, sequence (P10635 whole entry): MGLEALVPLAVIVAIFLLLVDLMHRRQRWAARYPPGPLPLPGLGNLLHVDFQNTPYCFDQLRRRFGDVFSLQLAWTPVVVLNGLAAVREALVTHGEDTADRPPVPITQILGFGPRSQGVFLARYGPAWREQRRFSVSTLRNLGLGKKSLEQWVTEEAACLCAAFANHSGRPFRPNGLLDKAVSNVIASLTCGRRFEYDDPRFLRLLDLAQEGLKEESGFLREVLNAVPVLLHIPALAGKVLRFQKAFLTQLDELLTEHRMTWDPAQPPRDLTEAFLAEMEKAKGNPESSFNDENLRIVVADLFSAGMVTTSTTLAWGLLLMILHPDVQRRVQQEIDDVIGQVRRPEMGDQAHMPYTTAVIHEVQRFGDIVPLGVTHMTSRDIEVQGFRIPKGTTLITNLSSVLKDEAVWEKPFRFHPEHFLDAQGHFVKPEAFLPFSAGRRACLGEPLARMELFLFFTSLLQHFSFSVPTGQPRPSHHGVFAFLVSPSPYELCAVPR

Cc1ccc(N=C2C(=O)Nc3c(C)cccc32)cc1
EC50 (Beta-galactosidase): > 40 µM (inactive)
IC50 [1]: > 40 µM (not active)

CCOc1ccc(C(c2c(C)n[nH]c2O)c2c(C)n[nH]c2O)cc1OC
AC50 [2]: 0.386 µM (active)
IC50 [3]: 43.6 µM (active)
IC50 [4]: 32.9 µM (active)
EC50 (Protein RecA): 0.309 µM (active)

O=C(CCCC(=O)OCC(=O)c1ccc(Cl)cc1Cl)Nc1cc(C(F)(F)F)ccc1Cl
AC50 (Cytochrome P450 2C9): inconclusive
EC50 (Beta-galactosidase): > 40 µM (inactive)
AC50 (Cytochrome P450 2D6): 12.6 µM (inconclusive)
IC50 [1]: > 40 µM (not active)

O=C(COC(=O)/C=C/c1ccc(OC(F)F)cc1)Nc1ccc(S(=O)(=O)N2CCCC2)cc1
IC50 [5]: > 69.5 µM (inactive)
IC50 [6]: > 69.5 µM (inactive)

CC(C)(C)c1ccc(C(=O)NNc2cc(N3CCCCC3)nc(N3CCCCC3)n2)cc1
IC50 [3]: 0.384 µM (active)
IC50 [4]: 0.796 µM (active)
IC50 [7]: 3.59 µM (active)
EC50 [8]: > 60 µM (not active)
EC50 [9]: 1.7 µM (active)
CC50 [10]: > 40 µM (active)

O=C(CN1C(=O)C2C3CCC(C3)C2C1=O)OCC(=O)c1cccc([N+](=O)[O-])c1 (stereo not given)
EC50 (Beta-galactosidase): > 40 µM (inactive)
IC50 [1]: 26.3 µM (not active)

Cc1cnc(C(=O)OC(C)C(=O)Nc2ccc3c(c2)OCCO3)cn1 (stereo not given)
IC50 [5]: > 69.5 µM (inactive)
IC50 [6]: > 69.5 µM (inactive)

COc1ccc(NC(=O)Nc2ccc3c(c2)C(=O)N([C@@H](C)CO)C[C@@H](C)[C@H](CN(C)Cc2ccc(C(F)(F)F)cc2)O3)cc1
AC50 [11]: 41.7 µM (active)
AC50 (Paired box protein Pax-8): 22 µM (active)

COc1cccc(S(=O)(=O)N(C)C[C@@H]2Oc3cc(C#CCC(C)C)ccc3S(=O)(=O)N([C@H](C)CO)C[C@H]2C)c1
AC50 [12]: 8.75 µM (active)
AC50 [13]: 36.2 µM (active)
AC50 [14]: 36.9 µM (active)

O=C(CCN1CCCCC1)N[C@H]1CC[C@H](CCn2cc(-c3ccccc3)nn2)O[C@@H]1CO
AC50 [14]: 40.8 µM (active)

C[C@@H]1CCCCO[C@@H](CN(C)Cc2ccc(C(F)(F)F)cc2)[C@H](C)CN([C@H](C)CO)C(=O)c2cc(NS(=O)(=O)c3ccccc3)ccc2O1
AC50 [15]: 41.9 µM (active)
AC50 [16]: 34 µM (active)
AC50 (Paired box protein Pax-8): 6.14 µM (active)

COc1cccc(CC(=O)N(Cc2ccccc2)c2ccccc2C(=O)Nc2cc(OC)ccc2OC)c1
IC50 [5]: > 69.5 µM (inactive)
IC50 [6]: > 69.5 µM (inactive)

COC(=O)[C@H](CC(C)C)N1Cc2nnn(Cc3ccc(C)cc3)c2-c2cc(F)ccc2S1(=O)=O
IC50 [5]: > 69.5 µM (inactive)
IC50 [6]: > 69.5 µM (inactive)
